Reference: US8410045B2, “Camptothecin-peptide conjugates and pharmaceutical compositions containing the same” (Drais Pharmaceuticals, Inc., priority 2006, dated 2013)
Like-named read-outs stand apart in the source and are kept apart here. Marks after values point to notes of the source that are not given here.

Key:
[1] = Stability of conjugates in citrated plasma at 37° C. (half life time, HPLC fluorescence); type: in vitro ADME; details: DPV1047-linker-SN38, 2.55 μM
Description: The stability of the conjugates was tested in citrated plasma (10% (v/v) sodium citrate buffer, 0.106M) from different species (see Table 1 below). The conjugates at 2.55 μM were incubated at 37° C. in plasma. Samples were analysed using the HPLC fluorescence method described below (see chromatographic equipment and conditions) following TFA/acetonitrile extraction and the amount of free camptothecin, analogs or derivatives thereof (e.g. SN38) released by the conjugates was measured.
Chromatographic equipment and conditions: 150 μL of each sample were placed in 1.5 mL micro-centrifuge tubes. 450 μL of 5% (v/v) TFA in H2O was added to each tube and the mixture was vortexed for 5 seconds. Samples were then centrifuged at 16000 g, 3 minutes at +4° C. 100 μL of supernatant were placed in 1.5 mL micro-centrifuge tubes. Methanol (100 μL) was then immediately added and vortexed for 5 seconds. Samples were then centrifuged at 16000 g, 3 minutes at room temperature. 150 μL of supernatant were recovered for HPLC analysis. Conjugates, metabolites and camptothecin derivative (i.e. SN38) were separated by high-performance liquid chromatography (HPLC; Agilent 1100 series equipped with a fluorescence detector) using a 4.6×100 mm ([…] particle size) Luna C18(2) column (Phenomenex ref. 00D-4251-E0, Le Pecq, France). The aqueous component of the mobile phase (A) was 0.1% (v/v) TFA in water. The organic modifier (B) was acetonitrile containing 0.1% (v/v) TFA. For the conjugate and its metabolites an elution gradient increasing linearly the proportion of B from 15 to 37% in 2 min, from 37 to 47% in 6 min, followed by 2 min at 90% was applied with a constant flow rate of 1.2 mL/min. The proportion of B was then returned to the initial condition for 3.0 min.
The half life time of conjugate corresponds to the time necessary to have 50% by mole of free camptothecin, analogs or derivatives thereof released by the conjugates of the invention. In human plasma, the half life time of conjugate DPV1047-linker #1-SN38 (less than 5 mins) was shorter than that of conjugate DPV1047-linker #2-SN38 (6-7 mins), which, in turn, was shorter than that of conjugate DPV1047-linker #3-SN38 (12 mins).

[2] = as above; type: in vitro ADME, human; details: for half-life: human, plasma
Outline: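 Conjugates at 2.55 μM incubated at 37° C in citrated plasma of several species, including human and dog. After TFA/acid extraction, released free camptothecin derivative (e.g. SN38) measured by reversed-phase C18 HPLC with fluorescence detection; half-life taken as time to 50 mol% release.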

HT-29 tumors = assay: Combination of DPV1047-BCH-SN38 with 5-FU or bevacizumab in the HT-29 tumor model; details: i.v.
Description: Mice were implanted with HT-29 tumors and treated by intraperitoneal administration (bevacizumab) or bolus intravenous injection (5-FU or DPV1047-BCH-SN38) at 10 μL/g. […] The T/C ratio was calculated following treatment with either bevacizumab, 5-FU or DPV1047-BCH-SN38. These T/C ratios were used to evaluate the expected T/C for combined treatment with bevacizumab and DPV1047-BCH-SN38, or 5-FU and DPV1047-BCH-SN38 (T/C of DPV1047-BCH-SN38×T/C of bevacizumab or 5-FU). […] The combination index of the two molecules was calculated by dividing the expected T/C by the observed T/C.

[3] = tested on: HCT 116 human colorectal carcinoma tumor
[4] = Pharmacokinetic study in the dog (blood, HPLC fluorescence); type: in vivo
Description: Peripheral blood samples were taken at different times following infusion for pharmacokinetic analysis.
Blood samples (2.5 mL) were collected in 5 mL in trisodium citrate tubes (Sarstedt S-Monovette® 9NC) containing 2.5 mL of 5% TFA (v/v) and vortexed for 5 seconds before storage at −80° C. (for less than two weeks).
Samples were then analyzed after a TFA and acetonitrile extraction by an HPLC fluorescence method, described below. […] Whole blood samples were acidified with TFA to protect the ester link of the conjugate against hydrolysis and allow protein precipitation to improve conjugate and SN38 recovery.
Five hundred microliters of each sample were then placed in 1.5 mL micro-centrifuge tubes to and centrifuged at 16000×g 3 min at +4° C. […] Methanol (100 μL) was then immediately added and the mixture stirred vigorously (vortex) for 5 seconds. Samples were then centrifuged at 16000×g, 3 min at room temperature.
One hundred and fifty microliters of the supernatant was recovered for HPLC analysis.
DPV1047-BCH-SN38 and its metabolite SN38 were separated by high-performance liquid chromatography (HPLC Agilent 1100 with a fluorescence detector) using the following method: […]

[5] = tested on: HCT 116 human epithelial colon carcinoma cells; assay: cells; type: cell-based
Description: Cytotoxic evaluation was performed by seeded cells for 24 h prior to the addition of the therapeutic compound. Cells were incubated for 48 h (37° C.) with different dilutions of the therapeutic compound. Cell viability was then assessed using the WST-1 assay (Roche). The results are expressed as mean cytotoxic concentrations (IC50 value or molar concentration that inhibits 50% of cell viability) that were estimated from sigmoid regression, using Graph Pad Prism 3.02 software.
HCT 116 (ATCC #: CCL-247): human epithelial colon carcinoma cells. Cells were cultured in Mc Coy's 5a medium+1.5 mM L-glutamine and 10% fetal bovine serum. Cells were plated at a density of 8000 cells/well in 96-well plates.

[6] = tested on: HT-29 colorectal carcinoma; assay: Antitumor efficacy in HT-29 colorectal carcinoma model in nude mice; type: in vivo; details: Table 7
NCI-H460 lung carcinoma = assay: Antitumor efficacy in NCI-H460 lung carcinoma model in nude mice; details: Table 7, i.v. Q2D3 × 3 W
[7] = Table 3, 30 (cumulative 90) μmol/kg, i.v. bolus, Q4Dx3
[8] = Table 7, i.v. Q2D3 × 3 W, 25 μmol/kg

## CCc1c2c(nc3ccc(OC(=O)[C@H]4CC[C@H](CNC(=O)C5CCC(CN6C(=O)CC(SC[C@H](N)C(=O)N[C@H](C(=O)N[C@@H](CCCCN)C(=O)N[C@@H](CCCNC(=N)N)C(=O)NCC(=O)N[C@@H](CC(C)C)C(=O)N[C@@H](CCCCN)C(=O)N[C@@H](CC(C)C)C(=O)N[C@@H](CCCNC(=N)N)C(=O)N[C@@H](Cc7c[nH]cn7)C(=O)N[C@H](C(=O)N[C@@H](CCCNC(=N)N)C(=O)N7CCC[C@H]7C(=O)N[C@@H](CCCNC(=N)N)C(=O)N[C@H](C(=O)N[C@H](C(=O)N[C@@H](CCCNC(=N)N)C(=O)N[C@@H](CCSC)C(=O)N[C@@H](CC(=O)O)C(=O)N[C@H](C(=O)O)C(C)C)[C@@H](C)O)C(C)C)C(C)C)C(C)C)C6=O)CC5)CC4)cc13)-c1cc3c(c(=O)n1C2)COC(=O)[C@]3(O)CC (single isomer, unassigned) [DPV1047-BCH-SN38]
[1]; time to 50% by mole free SN38 released, read-out: Half life time, Mouse plasma
  half-life: < 3 min
[1]; monkey
  half-life: 290 min
[1]; rat
  half-life: 14 min
[2]; human plasma
  half life time, times longer than the DPV1047-linker #2-SN38 conjugate: 60 times
[2]; DPV1047-linker-SN38, 2.55 μM, citrated plasma, read-out: Half life time, Human plasma
  half-life: 400 min
[2]; Table 10, SN38 conjugates, read-out: Human Plasma Half life time
  half-life: 360 min
[2]; Table 12, CPP-linker #5-SN38 conjugates incl. D conformation, read-out: Human Plasma Half life time
  half-life: 382 min
HT-29 tumors; 12.5 μmol/kg, 5-FU combination experiment
  Single treatment DPV1047-BCH-SN38 T/C %: 68%
HT-29 tumors; 12.5 μmol/kg, bevacizumab combination experiment
  Single treatment DPV1047-BCH-SN38 T/C %: 77%
HT-29 tumors; 25 μmol/kg, 5-FU combination experiment
  Single treatment DPV1047-BCH-SN38 T/C %: 50%
HT-29 tumors; 25 μmol/kg, bevacizumab combination experiment
  Single treatment DPV1047-BCH-SN38 T/C %: 69%
[3]; HCT 116 tumor-bearing nude mice, conjugates administered at their MADs
  clinical signs of toxicity such as body weight loss, diarrhea or alopecia: No clinical signs of toxicity
[3]; [7]
  Minimal T/C (%): 10%
  TGI %: 80%
[3]; Table 5, Q1D5, 18 (cumulative 90) μmol/kg
  TGI (100-T/C %): 93*** %
[3]; Table 5, Q1D5, 18 (cumulative 90) μmol/kg, i.v. bolus
  Minimal T/C (%): 7%
[3]; Table 5, Q2D3x3W, DPV1047-BCH-SN38 25 (225), irinotecan 48 (432) μmol/kg
  Minimal T/C (%): 3%
[3]; Table 5, Q2D3x3W, DPV1047-BCH-SN38 25, irinotecan 48 μmol/kg
  TGI (100-T/C %): 97*** %
[3]; [8]
  Optimal T/C %: 3.4%
  TGI %: 96.6%
[3]; mouse, in vivo
  Minimal T/C (%): 10%
  TGI (100-T/C %): 90*** %
[4]; dog blood (FIG. 2)
  circulating half life time in the blood compared to DPV1047-MIC-SN38: longer
[4]; dog blood, equimolar dose (FIG. 1)
  AUC of SN38 compared to DPV1047-MIC-SN38: significantly greater
[4]; dog blood, non-toxic doses (DPV1047-BCH-SN38 ≦20 mg/kg, DPV1047-MIC-SN38 ≦50 mg/kg)
  SN38 Cmax and AUC versus dose of the conjugate: increased linearly with the dose
[5]; 24 h
  IC50: 24 nM
[5]; 48 h
  IC50: 29 nM
[6]; i.v. Q4D × 3, 12.5 μmol/kg
  Optimal T/C %: 66.8%
  TGI %: 33.2%
[6]; i.v. Q4D × 3, 25 μmol/kg
  Optimal T/C %: 39.2%
  TGI %: 60.8%
NCI-H460 lung carcinoma; 12.5 μmol/kg
  Optimal T/C %: 47.5%
  TGI %: 52.5%
NCI-H460 lung carcinoma; 25 μmol/kg
  Optimal T/C %: 22.9%
  TGI %: 77.1%
